Assay results: ChEMBL document CHEMBL3044846, “Synthesis and structureactivity relationships of serotonin derivatives effect on -glucosidase inhibition” (Med Chem Res, 2012)
Active and inactive are the calls of the source. No cut-off for these calls is given here.

Assays:
[1] = biological target: Alpha-glucosidase MAL62 (Saccharomyces cerevisiae) (UniProt P07265); assay: Inhibition of yeast alpha-glucosidase using p-nitrophenyl-alpha-D-glucopyranoside as substrate preincubated at 300 uM for 10 min before substrate addition and measured after 10 min by spectrophotometry
Alpha-glucosidase MAL62 [2] = biological target: T1, Alpha-glucosidase MAL62 (Saccharomyces cerevisiae, UniProt P07265); assay: (§1) Inhibition of yeast alpha-glucosidase using p-nitrophenyl-alpha-D-glucopyranoside as substrate preincubated for 10 min before substrate addition and measured after 10 min by spectrophotometry
[3] = biological target: Alpha-glucosidase MAL62 (Saccharomyces cerevisiae) (UniProt P07265); assay: as §1
Alpha-glucosidase MAL62 [4] = biological target: T1, Alpha-glucosidase MAL62; assay: Uncompetitive inhibition of yeast alpha-glucosidase by Lineweaver-Burk plot analysis
Alpha-glucosidase MAL62 [5] = biological target: T1, Alpha-glucosidase MAL62; assay: Competitive inhibition of yeast alpha-glucosidase by Dixon plot analysis
[6] = biological target: Alpha-glucosidase MAL62 (Saccharomyces cerevisiae) (UniProt P07265); assay: Competitive inhibition of yeast alpha-glucosidase by Lineweaver-Burk plot analysis
Alpha-glucosidase MAL62 [7] = biological target: T1, Alpha-glucosidase MAL62; assay: Mixed-type inhibition of yeast alpha-glucosidase by Lineweaver-Burk plot analysis

T1 sequence (P07265 whole entry): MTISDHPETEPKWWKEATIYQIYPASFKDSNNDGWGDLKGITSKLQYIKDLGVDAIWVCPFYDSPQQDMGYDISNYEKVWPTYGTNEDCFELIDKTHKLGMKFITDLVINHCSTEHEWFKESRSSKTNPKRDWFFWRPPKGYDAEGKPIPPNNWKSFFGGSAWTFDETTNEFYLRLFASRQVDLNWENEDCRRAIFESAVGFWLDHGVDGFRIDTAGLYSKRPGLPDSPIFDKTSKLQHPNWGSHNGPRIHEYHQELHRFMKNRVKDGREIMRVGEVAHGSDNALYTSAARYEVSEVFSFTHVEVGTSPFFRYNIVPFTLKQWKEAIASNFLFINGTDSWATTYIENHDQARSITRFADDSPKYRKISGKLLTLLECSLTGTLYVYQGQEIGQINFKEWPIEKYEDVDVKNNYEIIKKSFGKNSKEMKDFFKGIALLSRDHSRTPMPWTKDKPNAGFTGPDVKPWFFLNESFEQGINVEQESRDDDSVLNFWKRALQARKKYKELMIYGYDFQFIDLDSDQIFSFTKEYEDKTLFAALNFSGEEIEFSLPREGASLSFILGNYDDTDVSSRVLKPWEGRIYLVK
Chain of Alpha-glucosidase MAL62 (Saccharomyces cerevisiae) (P07265 whole entry): as above

O=C(O)/C=C/c1ccc(O)c(O)c1 [CAFFEIC ACID]
inhibition [1]: 10.2%
IC50 (Alpha-glucosidase MAL62 [2]): > 300 µM

O=C(O)/C=C/c1ccccc1 [CINNAMIC ACID]
inhibition [1]: 4.5%
IC50 (Alpha-glucosidase MAL62 [2]): > 300 µM

O=C(O)/C=C/c1ccc(O)cc1 [COUMARIC ACID]
inhibition [1]: 4.9%
IC50 (Alpha-glucosidase MAL62 [2]): > 300 µM

OC[C@H]1NC[C@H](O)[C@@H](O)[C@@H]1O [DUVOGLUSTAT]
IC50 (Alpha-glucosidase MAL62 [2]): 278 µM

COc1cc(/C=C/C(=O)O)ccc1O [FERULATE]
IC50 (Alpha-glucosidase MAL62 [2]): > 300 µM

COc1ccc(/C=C/C(=O)NCCc2c[nH]c3ccc(O)cc23)cc1OC [N-3,4-DIMETHOXY CINNAMOYL SEROTONIN]
inhibition [3]: Dose-dependent effect
IC50 (Alpha-glucosidase MAL62 [2]): > 300 µM

O=C(/C=C/c1ccc(O)c(O)c1)NCCc1c[nH]c2ccc(O)cc12 [N-CAFFEOYLSEROTONIN]
Ki (Alpha-glucosidase MAL62 [4]): 64.4 µM
inhibition [3]: Dose-dependent effect
IC50 (Alpha-glucosidase MAL62 [2]): 48.2 µM

O=C(/C=C/c1ccccc1)NCCc1c[nH]c2ccc(O)cc12 [N-CINNAMOYL SEROTONIN]
Ki (Alpha-glucosidase MAL62 [5]): 133 µM
inhibition [6]: Active
inhibition [3]: Dose-dependent effect
IC50 (Alpha-glucosidase MAL62 [2]): 80.8 µM

O=C(CCc1ccc(O)cc1)NCCc1c[nH]c2ccc(O)cc12 [N-DIHYDRO-P-COUMAROYLSEROTONIN]
IC50 (Alpha-glucosidase MAL62 [2]): > 300 µM

O=C(CCc1ccc(O)c(O)c1)NCCc1c[nH]c2ccc(O)cc12 [N-DIHYDROCAFFEOYL SEROTONIN]
IC50 (Alpha-glucosidase MAL62 [2]): > 300 µM

O=C(CCc1ccccc1)NCCc1c[nH]c2ccc(O)cc12 [N-DIHYDROCINNAMOYL SEROTONIN]
IC50 (Alpha-glucosidase MAL62 [2]): > 300 µM

COc1cc(CCC(=O)NCCc2c[nH]c3ccc(O)cc23)ccc1O [N-DIHYDROFERULOYL SEROTONIN]
IC50 (Alpha-glucosidase MAL62 [2]): > 300 µM

COc1cc(CCC(=O)NCCc2c[nH]c3ccc(O)cc23)cc(OC)c1O [N-DIHYDROSINAPOYL SEROTONIN]
IC50 (Alpha-glucosidase MAL62 [2]): > 300 µM

COc1cc(/C=C/C(=O)NCCc2c[nH]c3ccc(O)cc23)ccc1O [N-FERULOYL SEROTONIN]
Ki (Alpha-glucosidase MAL62 [7]): 130 µM
inhibition [3]: Dose-dependent effect
IC50 (Alpha-glucosidase MAL62 [2]): 99.8 µM

COc1ccc(/C=C/C(=O)NCCc2c[nH]c3ccc(O)cc23)cc1O [N-ISOFERULOYL SEROTONIN]
inhibition [3]: Dose-dependent effect
IC50 (Alpha-glucosidase MAL62 [2]): > 300 µM

O=C(/C=C/c1ccc(O)cc1)NCCc1c[nH]c2ccc(O)cc12 [N-P-COUMAROYL SEROTONIN]
Ki (Alpha-glucosidase MAL62 [4]): 81.6 µM
inhibition [3]: Dose-dependent effect
IC50 (Alpha-glucosidase MAL62 [2]): 47.2 µM

COc1ccc(/C=C/C(=O)NCCc2c[nH]c3ccc(O)cc23)cc1 [N-P-METHOXY CINNAMOYL SEROTONIN]
inhibition [3]: Dose-dependent effect
IC50 (Alpha-glucosidase MAL62 [2]): > 300 µM

COc1cc(/C=C/C(=O)NCCc2c[nH]c3ccc(O)cc23)cc(OC)c1O [N-SINAPOYL SEROTONIN]
Ki (Alpha-glucosidase MAL62 [7]): 111 µM
inhibition [3]: Dose-dependent effect
IC50 (Alpha-glucosidase MAL62 [2]): 66.2 µM

NCCc1c[nH]c2ccc(O)cc12 [SEROTONIN]
inhibition [1]: 25.6%
IC50 (Alpha-glucosidase MAL62 [2]): > 300 µM

COc1cc(/C=C/C(=O)O)cc(OC)c1O [SINAPINATE]
IC50 (Alpha-glucosidase MAL62 [2]): 145 µM
